Source: PMC3492287, “Lysosomotropic Properties of Weakly Basic Anticancer Agents Promote Cancer Cell Selectivity In Vitro” (PLoS ONE, 2012)
“Also recorded” adds a separate entry of the source. Like-named read-outs stand apart in the source and are kept apart here.

How the values were obtained:
[1] = system: MDA-MB-231 cells with low (scrambled shRNA) vs elevated (V1E1 shRNA) lysosomal pH; test: intracellular distribution-based (IDB) selectivity from antiproliferative WST-1 IC50 values; format: cell-based, human
Text: We subsequently evaluated the IC50 of the Hsp90 inhibitors in both cell types (Figure S4) and calculated selectivity as IC50 in MDA-MB-231 cells with low lysosomal pH divided by IC50 in MDA-MB-231 cells with elevated lysosomal pH.
MDA-MB-231 cells with elevated lysosomal pH were generated by lentiviral vector-mediated knockdown of the V-ATPase V1E1 subunit (ATP6V1E1). The lentiviral transfer vector pPGK-Neo-ATP6V1E1 encoding the target sequence 5′-[…]-3′ against the V-ATPase V1E1 subunit was obtained from Mission (Sigma, St. Louis, MO). […] After the cells adhered, 2.6 µg of vector DNA was combined with 26 µL of the lentiviral packaging mix and transfected into cells using Fugene-6 transfection reagent (Roche Diagnostics, Indianapolis, IN), according to the manufacturer's instructions. […] The virus-containing cell culture supernatants were harvested twice: once at 24 h and again at 48 h. Prior to use, the viral media was filtered through a 0.45-µm filter and added onto 70% confluent 75 cc flasks of MDA-MB-231 cells, in the presence of 8 µg/mL hexadimethrine bromide. The viruses were allowed to infect the cells for 16–18 h, after which the media containing viruses was replaced with fresh media for a further 24 h prior to analysis of knockdown of V1E1 expression. The knockdown efficiency was analyzed by Western blotting, performed as described previously. […] Anti-goat HRP-conjugated secondary antibody (Santa Cruz Biotechnology) was used at a 1∶5000 dilution, and anti-mouse HRP-conjugated secondary antibody was used at a 1∶1000 dilution.
Cell sensitivity to compounds was evaluated using the WST-1 (4-[3[(4-iodophenyl)-2-(4-nitrophenyl)-2H-5-tetrazolio]-1,3-benzene disulfonate) assay (BioAssay Systems, Hayward, CA), which was performed according to the manufacturer's instructions. Briefly, 4000 cells were seeded per well of a 96-well plate and allowed to adhere overnight. Cells were incubated in increasing concentrations (9 different concentrations ranging from 0.00001 µM to 1000 µM) of drug for a period of 72 h. At the end of the drug treatment period, 10 µL of WST-1 reagent was added per well, allowed to incubate at 37°C for 2 hours, and absorbance at 450 and 620 nm (reference) was measured using a Multiskan model MCC/340 microplate reader (ThermoElectron Corp, Hudson, NH). Cell viability as a percent of control (untreated) cells was plotted against drug concentration to generate cytotoxicity curves, which were fit to 3 or 4 parameter logistic Hill plots using SigmaPlot. IC50 values were determined from the curve fit.

[2] = design: method as in PMID 17163760; conditions: previously measured; cited from earlier work
[3] = pKa determination by 1H NMR pH titration; format: physicochemical
Experimental: The pKa values for analogs 1, 2, 3, 5 and 6 (see Figure 2 for chemical structures) were measured at 37°C using ^1H NMR. To determine the pKa using this method, the chemical shifts of protons alpha to the ionizable amine were plotted against pH, yielding sigmoidal curves (Figure S1) from which pKa was derived. […] Therefore, we report a previously measured pKa value for compound 4 that was procured using an alternative approach, and we report a calculated value for compound 7 (see Materials and Methods). […] Only the higher pKa value is reported in Figure 2 because the second is too low to theoretically contribute to ion trapping in lysosomes.
All NMR solvents and reagents were obtained from Cambridge Isotope Labs (Andover, MA), unless noted otherwise. Compounds were dissolved at a 2–3 mg/mL concentration in D2O. pD measurements in D2O were performed using a MiniLab model IQ125 pH electrode (Fisher Scientific, Pittsburg, PA). pD was adjusted using NaOD (40% in D2O) or DCl (20% in D2O). ^1H NMR spectra were recorded at 37°C using a Bruker 400 MHz NMR and analyzed using the Bruker Topspin software. […] (DSS) was used as the reference peak. pD was converted to pH using the following expression: pH = 0.936pD*+0.412 [45]. The change in chemical shift of protons alpha to the amine as a function of pH yielded sigmoidal plots that were fit to a 4-parameter logistic equation using SigmaPlot (Systat Software, San Jose, CA) from which pKa was determined. The calculated pKa for compound 7 was determined using the MarvinSketch version 5.3.8. pKa plugin (www.chemaxon.com).

[4] = cited from earlier work
[5] = 1H NMR in D2O, 37°C, n = 1, for compound 5 the higher pKa, read-out: pKa

Q: For `O=c1[nH]cc(F)c(=O)[nH]1` [5-fluorouracil], which “IDB selectivity (IC50 low lysosomal pH / IC50 elevated lysosomal pH MDA-MB-231)” value [1] is on record?
A: ~1

Q: And the “IDB selectivity (IC50 low lysosomal pH / IC50 elevated lysosomal pH MDA-MB-231)” value ([1]; 72 h, WST-1, n = 3)?
A: one and did not show appreciable IDB selectivity

Q: Which alpha value [2] does the source give for `CO[C@H]1/C=C\C=C(/C)C(=O)NC2=CC(=O)C(NCCN(C)C)=C(C[C@@H](C)C[C@H](OC)[C@H](O)[C@@H](C)/C=C(\C)[C@@H]1OC(N)=O)C2=O` [17-DMAG] here?
A: 0.01

Q: For `COC1C=CC=C(C)C(=O)NC2=CC(=O)C(NCCc3cccnc3)=C(CC(C)CC(OC)C(O)C(C)C=C(C)C1OC(N)=O)C2=O` (centres unmarked) [Compound 1], which pKa [3, 5] is on record?
A: 5.8

Q: For `COC1C=CC=C(C)C(=O)NC2=CC(=O)C(NCCN(C)C)=C(CC(C)CC(OC)C(O)C(C)C=C(C)C1OC(N)=O)C2=O` (centres unmarked) [Compound 3], which pKa [3] is on record?
A: 7.8

Q: Which pKa [3, 5] does the source give for `COC1C=CC=C(C)C(=O)NC2=CC(=O)C(NCCN3CCNCC3)=C(CC(C)CC(OC)C(O)C(C)C=C(C)C1OC(N)=O)C2=O` (centres unmarked) [Compound 5] here?
A: 9.9

Q: And the pKa ([3]; 1H NMR, 37°C, too low to contribute to ion trapping, read-out: pKa (second, lower value))?
A: 4.2

Q: Which pKa [3, 5] does the source give for `COC1C=CC=C(C)C(=O)NC2=CC(=O)C(NCCC3CCNCC3)=C(CC(C)CC(OC)C(O)C(C)C=C(C)C1OC(N)=O)C2=O` (centres unmarked) [Compound 6] here?
A: 10.5

Q: For `COc1cccc2c1C(=O)c1c(O)c3c(c(O)c1C2=O)C[C@@](O)(C(C)=O)C[C@@H]3O[C@H]1C[C@H](N)[C@H](O)[C@H](C)O1` [daunorubicin], which “IDB selectivity (IC50 low lysosomal pH / IC50 elevated lysosomal pH MDA-MB-231)” value [1] is on record?
A: significant but different degrees of IDB selectivity; also recorded: significantly higher IDB selectivity than did mitoxantrone

Q: For `O=C1c2c(O)ccc(O)c2C(=O)c2c(NCCNCCO)ccc(NCCNCCO)c21` [mitoxantrone], which “IDB selectivity (IC50 low lysosomal pH / IC50 elevated lysosomal pH MDA-MB-231)” value ([1]; 72 h, WST-1, n = 3) is on record?
A: significant but different degrees of IDB selectivity

Q: And the “IDB selectivity (IC50 low lysosomal pH / IC50 elevated lysosomal pH MDA-MB-231)” value ([1]; 72 h, WST-1, n = 3, listed as Mitoxantrone)?
A: significant IDB selectivity

Q: What about the “pKa” value ([4]; in Figure 6) of the same compound?
A: 6

Q: And the pKa ([4]; weakly basic)?
A: 8.1

Q: What about the pKa ([4]; weakly basic, listed as Mitoxantrone) of the same compound?
A: ~8
